Data: patent US10160747B2, “Compounds and methods for kinase modulation, and indications therefor” (Plexxikon Inc., priority 2016, dated 2018)
pIC50: −log10 of the molar value.

Experiments:
FLT3-ITD = molecular target: T1, FLT3-ITD (Homo sapiens, UniProt P36888); assay: FLT3-ITD recombinant enzyme kinase assay (AlphaScreen); format: biochemical; details: 8 pt; read-out: FLT3_ITD 8 pt: IC50
T1 sequence (P36888 1-993): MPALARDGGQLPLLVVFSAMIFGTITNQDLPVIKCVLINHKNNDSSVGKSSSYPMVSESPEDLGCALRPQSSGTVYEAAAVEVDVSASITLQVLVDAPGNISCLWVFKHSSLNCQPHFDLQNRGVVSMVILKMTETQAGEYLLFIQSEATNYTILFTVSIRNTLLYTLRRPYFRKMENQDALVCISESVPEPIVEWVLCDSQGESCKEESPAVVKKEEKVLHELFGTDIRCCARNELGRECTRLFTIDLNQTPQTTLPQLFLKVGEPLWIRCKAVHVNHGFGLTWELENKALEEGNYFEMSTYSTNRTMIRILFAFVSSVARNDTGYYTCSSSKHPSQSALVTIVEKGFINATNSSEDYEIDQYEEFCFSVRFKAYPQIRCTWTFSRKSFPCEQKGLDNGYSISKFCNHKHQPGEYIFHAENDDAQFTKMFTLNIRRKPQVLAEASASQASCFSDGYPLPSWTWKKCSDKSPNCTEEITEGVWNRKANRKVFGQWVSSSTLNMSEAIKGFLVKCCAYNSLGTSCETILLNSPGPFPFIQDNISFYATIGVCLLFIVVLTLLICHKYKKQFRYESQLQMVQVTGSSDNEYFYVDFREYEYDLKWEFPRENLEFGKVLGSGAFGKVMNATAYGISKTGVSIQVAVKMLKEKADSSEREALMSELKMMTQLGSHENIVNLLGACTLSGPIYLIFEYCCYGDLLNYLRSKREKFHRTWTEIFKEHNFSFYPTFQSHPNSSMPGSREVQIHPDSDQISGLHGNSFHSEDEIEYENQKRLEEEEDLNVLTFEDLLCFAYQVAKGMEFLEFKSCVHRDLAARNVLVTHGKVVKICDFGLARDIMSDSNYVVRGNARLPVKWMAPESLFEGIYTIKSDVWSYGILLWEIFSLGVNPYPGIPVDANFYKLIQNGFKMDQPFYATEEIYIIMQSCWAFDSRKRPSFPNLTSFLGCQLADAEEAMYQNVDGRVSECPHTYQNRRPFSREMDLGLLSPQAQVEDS
In short: (§1)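 Substrate 30 nM biotin-GG(EEEEY)10EE; ATP 10 μM (FLT3-ITD, FLT3-D835Y) or 100 μM (c-KIT). Detection: AlphaScreen PY20 kit, 10 μg/mL beads, RT 20 + 60 min. Readout 580 nm; IC50.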

FLT3-D835Y = molecular target: T2, FLT3-D835Y (Homo sapiens, UniProt P36888, D835Y); assay: FLT3-D835Y recombinant enzyme kinase assay (AlphaScreen); format: biochemical; details: 8 pt, GMean
T2 construct: purchased Invitrogen PV3967
T2 sequence (P36888 27-993 D835Y): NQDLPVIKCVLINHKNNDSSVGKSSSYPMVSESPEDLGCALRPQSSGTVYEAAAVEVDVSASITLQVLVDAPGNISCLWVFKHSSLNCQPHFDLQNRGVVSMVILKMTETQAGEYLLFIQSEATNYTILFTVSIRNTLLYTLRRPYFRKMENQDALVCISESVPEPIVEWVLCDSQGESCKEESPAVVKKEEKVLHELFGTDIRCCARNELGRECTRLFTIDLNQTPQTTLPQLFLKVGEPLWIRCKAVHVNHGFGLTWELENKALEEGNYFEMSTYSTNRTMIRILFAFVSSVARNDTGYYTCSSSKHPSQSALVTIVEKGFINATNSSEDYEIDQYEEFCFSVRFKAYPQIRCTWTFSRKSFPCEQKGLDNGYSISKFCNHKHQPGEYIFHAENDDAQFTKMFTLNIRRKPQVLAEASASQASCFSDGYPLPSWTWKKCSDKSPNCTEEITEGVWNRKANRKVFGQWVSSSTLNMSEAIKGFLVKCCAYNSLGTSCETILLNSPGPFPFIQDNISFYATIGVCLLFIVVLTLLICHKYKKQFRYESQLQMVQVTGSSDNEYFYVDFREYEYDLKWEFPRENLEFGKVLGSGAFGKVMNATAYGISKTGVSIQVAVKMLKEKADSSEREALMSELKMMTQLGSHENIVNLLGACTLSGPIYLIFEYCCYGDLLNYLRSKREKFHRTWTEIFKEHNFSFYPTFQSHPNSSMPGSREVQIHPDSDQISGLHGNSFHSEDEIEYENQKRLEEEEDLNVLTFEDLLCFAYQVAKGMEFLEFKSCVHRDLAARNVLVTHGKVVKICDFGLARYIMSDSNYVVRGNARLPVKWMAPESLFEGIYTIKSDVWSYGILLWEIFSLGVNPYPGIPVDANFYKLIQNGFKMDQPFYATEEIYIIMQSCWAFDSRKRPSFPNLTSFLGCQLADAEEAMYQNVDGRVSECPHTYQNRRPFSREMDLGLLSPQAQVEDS
In short: as §1

Row | Structure (SMILES) | pIC50 (FLT3-ITD) | pIC50 (FLT3-D835Y)
1 | Cn1cc(Nc2ncc(-c3ccc(CC(=O)NCc4ccc(C(F)(F)F)nc4)c(F)c3)cn2)cn1 [Compound P-0087, 2-[2-fluoro-4-[2-[(1-methylpyrazol-4-yl)amino]pyrimidin-5-yl]phenyl]-N-[[6-(trifluoromethyl)-3-pyridyl]methyl]acetamide] | 5.00 to 10.00 | 5.00 to 10.00
2 | CC(C)(C)c1ccc(NC(=O)Cc2ccc(-c3cnc4[nH]cc(F)c4c3)cc2F)cn1 [Compound P-0043, N-(6-tert-butyl-3-pyridyl)-2-[2-fluoro-4-(3-fluoro-1H-pyrrolo[2,3-b]pyridin-5-yl)phenyl]acetamide] | 5.00 to 10.00 | 5.00 to 10.00
3 | Cn1cc(Nc2ncc(-c3ccc(CC(=O)Nc4cc(C(F)(F)F)ccn4)c(F)c3)cn2)cn1 [Compound P-0082, 2-[2-fluoro-4-[2-[(1-methylpyrazol-4-yl)amino]pyrimidin-5-yl]phenyl]-N-[4-(trifluoromethyl)-2-pyridyl]acetamide] | 5.00 to 10.00 | 5.00 to 10.00
4 | Cc1ncc(NC(=O)Cc2ccc(-c3cnc(Nc4cnn5ccccc45)nc3)cc2F)cc1C(F)(F)F [Compound P-0065, 2-(2-fluoro-4-(2-(pyrazolo[1,5-a]pyridin-3-ylamino)pyrimidin-5-yl)phenyl)-N-(6-methyl-5-(trifluoromethyl)pyridin-3-yl)acetamide] | 5.00 to 10.00 | 5.00 to 10.00
5 | COc1nn(C[C@H](C)O)cc1Nc1ncc(-c2ccc(CC(=O)Nc3cncc(C(F)(F)F)c3)c(F)c2)cn1 [Compound P-0050, 2-[2-fluoro-4-[2-[[1-[(2S)-2-hydroxypropyl]-3-methoxy-pyrazol-4-yl]amino]pyrimidin-5-yl]phenyl]-N-[5-(trifluoromethyl)-3-pyridyl]acetamide] | 5.00 to 10.00 | 5.00 to 10.00
6 | COc1cncc(NC(=O)Cc2ccc(-c3cnc(Nc4cnn(C)c4)nc3)cc2F)c1 [Compound P-0086, 2-[2-fluoro-4-[2-[(1-methylpyrazol-4-yl)amino]pyrimidin-5-yl]phenyl]-N-(5-methoxy-3-pyridyl)acetamide] | 5.00 to 10.00 | 5.00 to 10.00
7 | COc1ncc(NC(=O)Cc2ccc(-c3cnc(Nc4cn[nH]c4)nc3)cc2)cc1C(F)(F)F [Compound P-0025, N-[6-methoxy-5-(trifluoromethyl)-3-pyridyl]-2-[4-[2-(1H-pyrazol-4-ylamino)pyrimidin-5-yl]phenyl]acetamide] | 5.00 to 10.00 | 5.00 to 10.00
8 | Cn1cnc(Nc2ncc(-c3ccc(CC(=O)Nc4cc(C(C)(F)F)ccn4)cc3F)cn2)c1 [Compound P-0171, N-[4-(1,1-difluoroethyl)-2-pyridyl]-2-[3-fluoro-4-[2-[(1-methylimidazol-4-yl)amino]pyrimidin-5-yl]phenyl]acetamide] | 5.00 to 10.00 | 
9 | Cn1cnc(Nc2ncc(-c3cc(F)c(CC(=O)Nc4cncc(C(F)(F)F)c4)cc3F)cn2)c1 [Compound P-0078, 2-(2,5-difluoro-4-(2-((1-methyl-1H-imidazol-4-yl)amino)pyrimidin-5-yl)phenyl)-N-(5-(trifluoromethyl)pyridin-3-yl)acetamide] | 5.00 to 10.00 | 5.00 to 10.00
10 | O=C(Cc1ccc(-c2cnc3[nH]cc(F)c3c2)cc1F)Nc1cc(Cl)c(C2CC2)cn1 [Compound P-0044, N-(4-chloro-5-cyclopropyl-2-pyridyl)-2-[2-fluoro-4-(3-fluoro-1H-pyrrolo[2,3-b]pyridin-5-yl)phenyl]acetamide] | 5.00 to 10.00 | 5.00 to 10.00
11 | Cn1cc(Nc2ncc(-c3ccc(CC(=O)Nc4cncc(C(F)(F)F)c4)c(F)c3)cn2)cn1 [Compound P-0084, 2-[2-fluoro-4-[2-[(1-methylpyrazol-4-yl)amino]pyrimidin-5-yl]phenyl]-N-[5-(trifluoromethyl)-3-pyridyl]acetamide] | 5.00 to 10.00 | 5.00 to 10.00
12 | O=C(Cc1ccc(-c2cnc3[nH]cc(C(=O)C4CC4)c3c2)cc1F)Nc1ccnc(C(F)(F)F)c1 [Compound P-0032, 2-[4-[3-(cyclopropanecarbonyl)-1H-pyrrolo[2,3-b]pyridin-5-yl]-2-fluoro-phenyl]-N-[2-(trifluoromethyl)-4-pyridyl]acetamide] | 5.00 to 10.00 | 5.00 to 10.00
13 | Cn1cc(Nc2ncc(-c3ccc(CC(=O)Nc4ccnc(C(F)(F)F)c4)c(F)c3)cn2)cn1 [Compound P-0083, 2-[2-fluoro-4-[2-[(1-methylpyrazol-4-yl)amino]pyrimidin-5-yl]phenyl]-N-[2-(trifluoromethyl)-4-pyridyl]acetamide] | 5.00 to 10.00 | 5.00 to 10.00
14 | COc1ncc(NC(=O)Cc2ccc(-c3cnc4[nH]c(Cl)cc4c3)cc2F)cc1C(F)(F)F [Compound P-0038, 2-[4-(2-chloro-1H-pyrrolo[2,3-b]pyridin-5-yl)-2-fluoro-phenyl]-N-[6-methoxy-5-(trifluoromethyl)-3-pyridyl]acetamide] | 5.00 to 10.00 | 
15 | O=C(Cc1ccc(-c2cnc3[nH]c(Cl)cc3c2)cc1F)Nc1ccnc(C(F)(F)F)c1 [Compound P-0030, 2-[4-(2-chloro-1H-pyrrolo[2,3-b]pyridin-5-yl)-2-fluoro-phenyl]-N-[2-(trifluoromethyl)-4-pyridyl]acetamide] | 5.00 to 10.00 | 
16 | COc1ncc(NC(=O)Cc2cc(F)c(-c3cnc4[nH]c(Cl)cc4c3)cc2F)cc1C(F)(F)F [Compound P-0045, 2-[4-(2-chloro-1H-pyrrolo[2,3-b]pyridin-5-yl)-2,5-difluoro-phenyl]-N-[6-methoxy-5-(trifluoromethyl)-3-pyridyl]acetamide] | 5.00 to 10.00 | 
17 | O=C(Cc1ccc(-c2cnc3c(c2)C2(CC2)C(=O)N3)cc1F)Nc1cncc(C(F)(F)F)c1 [Compound P-0064, 2-(2-fluoro-4-(2′-oxo-1′,2′-dihydrospiro[cyclopropane-1,3′-pyrrolo[2,3-b]pyridin]-5′-yl)phenyl)-N-(5-(trifluoromethyl)pyridin-3-yl)acetamide] | 5.00 to 10.00 | 
18 | COc1ncc(NC(=O)Cc2ccc(-c3cnc4[nH]cc(F)c4c3)c(F)c2)cc1C(F)(F)F [Compound P-0048, 2-[3-fluoro-4-(3-fluoro-1H-pyrrolo[2,3-b]pyridin-5-yl)phenyl]-N-[6-methoxy-5-(trifluoromethyl)-3-pyridyl]acetamide] |  | 5.00 to 10.00
19 | COc1ncc(NC(=O)Cc2ccc(-c3cnc4[nH]c(Cl)cc4c3)c(F)c2)cc1C(F)(F)F [Compound P-0046, 2-[4-(2-chloro-1H-pyrrolo[2,3-b]pyridin-5-yl)-3-fluoro-phenyl]-N-[6-methoxy-5-(trifluoromethyl)-3-pyridyl]acetamide] | 5.00 to 10.00 | 
20 | Cn1cc(Nc2ncc(-c3ccc(CC(=O)NCc4ccccn4)c(F)c3)cn2)cn1 [Compound P-0088, 2-[2-fluoro-4-[2-[(1-methylpyrazol-4-yl)amino]pyrimidin-5-yl]phenyl]-N-(2-pyridylmethyl)acetamide] | 5.00 to 10.00 | 
21 | Cn1cc(Nc2ncc(-c3ccc(CC(=O)NCc4ccc(C(F)(F)F)cn4)cc3)cn2)cn1 [Compound P-0162, 2-[4-[2-[(1-methylpyrazol-4-yl)amino]pyrimidin-5-yl]phenyl]-N-[[5-(trifluoromethyl)-2-pyridyl]methyl]acetamide] | 5.00 to 10.00 | 
